Measured values published in patent US9521845B2, “Beta-lactones as antibacterial agents” (LUDWIG-MAXIMILIANS-UNIVERSITÄT-MÜNCHEN, priority 2008, dated 2016).

Tests used:
ClpP = target: T1, ClpP (Staphylococcus aureus, UniProt Q2G036); test: In vivo labelling of the proteome of S. aureus; assay type: cell-based
T1 construct: endogenous in cells
T1 sequence (Q2G036 1-195): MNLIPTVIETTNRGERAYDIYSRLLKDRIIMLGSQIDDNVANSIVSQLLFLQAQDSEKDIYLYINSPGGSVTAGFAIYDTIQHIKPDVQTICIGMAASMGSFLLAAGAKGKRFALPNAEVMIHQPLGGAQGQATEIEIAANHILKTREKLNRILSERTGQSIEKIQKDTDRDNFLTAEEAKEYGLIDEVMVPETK
Protocol: FIG. 16: In vivo labelling of the proteome of S. aureus with beta-lactones. Probes were applied at a certain concentration to approx. 2×10^9 cfu of stationary phase S. aureus in 100 μL PBS and incubated for 2 h. Excess probe (beta-lactone) was removed by washing the cells 3× with 1 mL PBS each. Then the cells were lysed by sonication. ClpP has been identified by mass spectrometry from preparative SDS gels after workup and tryptic digestion. B) In vivo dose down of beta-lactones D3, E2 and G2 with S. aureus indicates strong labeling by beta-lactone D3. C) Increase of selectivity at 8.0 μM concentration.
This example relates to the in vivo labelling of the proteome of S. aureus with β-lactones. The beta-lactones were applied at a certain concentration to approx. 2×10^9 cfu of stationary phase S. aureus in 100 μL PBS and incubated for 2 h. Excess beta-lactone was removed by washing the cells 3× with 1 mL PBS each. Then the cells were lysed by sonication. […] ClpP has been identified by mass spectrometry from preparative SDS gels after workup and tryptic digestion.

[1] = system: haemolysis abilities of Staphylococcus aureus; test: Blood agar plate-based haemolysis assay; assay type: cell-based
Protocol: FIG. 3: Blood agar plate-based assay illustrating that beta-lactones have an effect on the haemolysis abilities of Staphylococcus aureus. 2.5 μL of S. aureus LB dilution (OD600=0.13 corresponding to approx. 1×10^8 cfu/ml) and 2.5 μL DMSO/lactone in DMSO were applied on Whatman Cards placed on 5% sheep blood agar plates (Heipha Diagnostika, Eppelheim, Germany) and incubated at 37° C. over night. A) Direct comparison of beta-lactones as shown in FIG. 2 at a total amount of 250 nmol applied on Whatman Cards. B) Dose down with beta-lactone compounds D3, E2 and G2 at applied concentrations of 100 mM, 50 mM, 25 mM, 12.5 mM, 6.25 mM and 0 mM (corresponding to total amounts of 250 nmol, 125 nmol, 62.5 nmol, 31.3 nmol, 15.6 nmol and 0 nmol, respectively).
2.5 μl, of S. aureus LB dilution (OD600 0.13 corresponding to approx. 1×10^8 cfu/ml) and 2.5 μL DMSO/beta-lactone in DMSO were applied on Whatman Cards placed on 5% sheep blood agar plates (Heipha Diagnostika, Eppelheim, Germany) and incubated at 37° C. over night. FIG. 3A directly compares the β-lactones at a total amount of 250 nmol applied on Whatman Cards. […] For D3 almost no haemolysis is observed down to a total amount of 125 nmol lactone. FIG. 5 illustrates the haemolytic activity of beta-lactone compounds D3, E2 and G2 plotted against the total amount of the respective beta-lactone, whereby a haemolysis zone size of 1.5 mm was set as 100% haemolytic activity. The data shown in FIG. 5 has been corroborated by further experimental testing.
Haemolysis was tested on blood agar plates (5% sheep blood; Heipha Diagnostika, Eppelheim, Germany). Sterile circles of Whatman cards (No. Y) with 5 mm diameter were placed on agar plates and inoculated with 2.5 μL of the corresponding beta-lactone/DMSO and 2.5 μL stationary phase culture of S. aureus diluted to […]. The plates were incubated over night at 37° C. and the diameters of the zones around the bacterial colonies were precisely measured using a vernier caliper.

[2] = system: LLO haemolytic activity of L. monocytogenes EGDe; test: LLO haemolytic activity testing of culture supernatants; assay type: cell-based, Listeria monocytogenes EGDe; conditions: sheep red blood cells
Protocol: Overnight cultures of L. monocytogenes EGDe were harvested by centrifugation and resuspended in an equal volume of fresh BHB medium. In 1.5 mL Eppendorf tubes, 400 μL of BHB medium were inoculated with 4 μL of the resuspended Listeria culture and 4 μL of a corresponding beta-lactone stock in DMSO. The final concentrations were 800 μM, 400 μM, 200 μM, 100 μM and DMSO as control. The amount of DMSO in all tests was 1% of the medium. After mixing, the test tubes were incubated under continuous shaking at 200 rpm at 37° C. for 16 h. Then, cells were centrifuged and the supernatants filtered sterile by passing them through a 0.2 μm pore size filter. Haemolytic activity of LLO in the culture supernatants was quantitatively investigated according to a method described in J. Food Safety 1998, 18: 197-203 (incorporated herein by reference) with some modifications. In Nunclon™ 96-well plates with round shaped wells 100 μL of serial dilutions of the supernatants in PBS were added per well and incubated with 100 μL of 3% SRBC (sheep red blood cells) resuspended in PBS for 15 min at 37° C. under gentle shaking. The 96-well plates were centrifuged at 600 rpm for 5 min and the minimum dilution at which intact blood cells began to form a pellet was recorded. Controls with no lactone were set 100%. Buffer only controls and pure BHB medium yielded no haemolysis.

C#CCCCC1OC(=O)C1CCCCCCCC=C (stereo not drawn) [D3, trans-3-(8-nonen-1-yl)-4-(4-pentyn-1-yl)oxetan-2-one]
ClpP labelling (ClpP; 8.0 μM concentration): still labelled | off-targets (selectivity) (ClpP; 8.0 μM concentration): almost no off-targets are visible | ClpP labelling in in vivo dose down (ClpP; stationary phase S. aureus, 2 h, dose down of D3, E2, G2): strong labelling | potency ranking in haemolysis dose down (E2, G2, D3) ([1]; FIG. 5 dose down): most active | total amount down to which almost no haemolysis is observed ([1]; dose down 250-15.6 nmol): 125 nmol | haemolytic activity of S. aureus ([1]; total amount of 250 nmol applied on Whatman Cards, 5% sheep blood agar, 37° C. over night): strongly reduce | EC50 ([2]; Listeria monocytogenes, Erythrocyte, cultures grown 16 h with lactone, read-out: EC50 of reduction of LLO haemolytic activity): 100 µM | reduction (inhibition) of haemolytic activity ([2]; cultures grown 16 h with 100-800 μM lactone): 80%
